Where two headings read alike, the source gives them in different places.
Assays:
Mcl-1 = target: T1, Mcl-1 (Homo sapiens, UniProt Q07820); experiment: Competition fluorescence polarization (anisotropy) with fluoresceinated BIM; assay type: binding
T1 construct: c-myc
Procedure: C-myc-tagged receptors were used for all Bcl-2 homologs, as previously described ([DeBartolo et al., 2012]; [Dutta et al., 2010]). Plates were mixed at 23°C for 3 hr. Plates were read again at 24 to check equilibration. Experiments were done in at least triplicate. Data were fit, as described for competition fluorescence anisotropy experiments in [Foight et al. (2014]), to a complete competitive binding model (equation 17 in [Roehrl et al. [2004]]) using a Python script.

Bcl-2 = target: T2, Bcl-2 (Homo sapiens, UniProt P10415); experiment: as above; assay type: binding
T2 construct: c-myc
T2 sequence (P10415 whole entry): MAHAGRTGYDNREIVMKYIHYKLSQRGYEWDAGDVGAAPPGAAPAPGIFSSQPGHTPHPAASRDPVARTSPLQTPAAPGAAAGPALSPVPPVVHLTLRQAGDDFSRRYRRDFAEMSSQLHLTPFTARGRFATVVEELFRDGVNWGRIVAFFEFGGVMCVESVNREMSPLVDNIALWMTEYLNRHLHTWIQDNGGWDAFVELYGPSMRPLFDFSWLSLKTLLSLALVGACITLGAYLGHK
Procedure: (§1) Plates were mixed at 23°C for 3 hr. Plates were read again at 24 to check equilibration. Experiments were done in at least triplicate.

Bcl-w = target: T3, Bcl-w (Homo sapiens, UniProt Q92843); experiment: as above; assay type: binding
T3 construct: c-myc
T3 sequence (Q92843 1-193): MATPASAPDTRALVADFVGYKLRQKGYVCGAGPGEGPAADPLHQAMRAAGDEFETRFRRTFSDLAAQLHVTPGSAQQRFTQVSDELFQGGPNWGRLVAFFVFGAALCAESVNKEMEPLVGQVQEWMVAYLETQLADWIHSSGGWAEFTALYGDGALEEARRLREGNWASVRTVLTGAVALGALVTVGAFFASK
Procedure: as §1

Bcl-xL = target: T4, Bcl-xL (Homo sapiens, UniProt Q07817); experiment: as above; assay type: binding
T4 construct: c-myc
T4 sequence (Q07817 whole entry): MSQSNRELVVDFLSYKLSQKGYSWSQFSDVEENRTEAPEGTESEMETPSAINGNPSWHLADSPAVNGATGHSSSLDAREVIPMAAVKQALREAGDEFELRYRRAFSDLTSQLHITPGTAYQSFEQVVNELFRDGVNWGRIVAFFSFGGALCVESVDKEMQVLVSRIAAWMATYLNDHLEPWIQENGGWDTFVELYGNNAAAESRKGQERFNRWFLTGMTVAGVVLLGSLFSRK
Procedure: as §1

Bfl-1 = target: T5, Bfl-1 (Homo sapiens, UniProt Q16548); experiment: as above; assay type: binding; details: for Ki / Ki (M) Bfl-1: competition FP source data; for Ki: mean of three replicates
T5 construct: c-myc
T5 sequence (Q16548 1-175): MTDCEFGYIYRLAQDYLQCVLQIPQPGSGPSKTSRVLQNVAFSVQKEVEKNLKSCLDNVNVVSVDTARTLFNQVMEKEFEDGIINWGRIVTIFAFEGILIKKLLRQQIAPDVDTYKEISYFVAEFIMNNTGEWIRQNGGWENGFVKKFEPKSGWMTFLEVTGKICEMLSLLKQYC
Procedure: as §1

[1] = test system: BCR-ABL-expressing B-lineage acute lymphoblastic leukemia cells dependent on Mcl-1; details: iBH3 fits Mcl-1, sigmoidal dose-response (variable slope)
Procedure: (§2) As an additional test for on-pathway activity, we measured cytochrome c release in the same engineered cell lines in response to peptide treatment, using iBH3 profiling ([Ryan et al., 2016]).
(§3) The creation and characterization of the BCR-ABL-expressing B-lineage acute lymphoblastic leukemia suspension cell lines with engineered dependencies on human versions of anti-apoptotic genes is detailed in [Koss et al. (2016)]). Cells were grown in RPMI (Life Technologies, Carlsbad, CA) with 10% fetal bovine serum, 2 mM L-glutamine, 10 mL/L 100x Pen/Strep (Life Technologies # 15140122), 25 mM HEPES and 10 mL/L 100x NEAA (Life Technologies, 11140050). The adherent cell lines PC-3 (RRID: CVCL_0035) and SF295 (RRID: CVCL_1690) are from the NCI60 panel ([Lorenzi et al., 2009]) and were grown in RPMI (Life Technologies) with 10% fetal bovine serum, 2 mM L-glutamine and 10 mL/L 100x Pen/Strep (Life Technologies # 15140122 ). Cell line identities were confirmed by STR profiling. The Lookout Mycoplasma PCR detection kit (Sigma) was used to detect mycoplasma infection.
(§4) Cells were suspended in MEB buffer (150 mM mannitol, 50 mM KCl, 10 mM HEPES, 5 mM succinic acid, 20 μM EGTA, 20 μM EDTA, 0.1% BSA, final pH 7.4) at 0.5*10^6 cells/mL (adherent lines) or 2 *10^6 cells/mL (suspension lines). Cell suspension was added to a 384 non-binding well plate (10 μL/well) containing peptides at 2X final concentration in MEB with 20 μg/mL digitonin. Plates were incubated at 25°C for 1 hr. To terminate exposure, 10 μL of 4% formaldehyde in PBS was added to each well, plates were incubated for 10 min before addition of 10 μL N2 buffer (1.7M Tris, 1.25M glycine, pH 9.1) for 5 min. 10 μL of staining buffer (2% Tween20, 10% BSA, PBS) containing 10 μg/mL Hoechst 33342 and 1.25 μg/mL anti-cytochrome c Alexa647 conjugate (BioLegend clone 6H2.B4) was added to each well before sealing the plate and shaking overnight. The median fluorescence of the cytochrome c channel of Hoechst positive singlets was recorded by an IntelliCyt iQue Screener Plus. Cytochrome c release was determined by normalizing the median fluorescence intensity (MFI) data to positive control wells (Alamethicin) and negative control wells (DMSO) as follows: Cytochromecrelease=1−(MFIsample−MFIAlamethicin)/(MFIDMSO−MFIAlamethicin)

[2] = test system: BCR-ABL-expressing B-lineage acute lymphoblastic leukemia cells dependent on Bcl-2; experiment: iBH3 profiling, cytochrome c release; assay type: cell-based; details: iBH3 fits Bcl-2, sigmoidal dose-response (variable slope)
Procedure: as §2, §3, §4

PC-3 cells = experiment: iBH3, cytochrome c release in unprimed cells (BAK/BAX activator function); assay type: cell-based
Procedure: (§5) To test the possibility that FS1, FS2 or FS3 may directly activate BAK and BAX, we measured cytochrome c release in two ‘unprimed’ cell lines (PC-3 and SF295). Unprimed cells require BAK/BAX activators to release cytochrome c ([Certo et al., 2006]).
(§6) Cell line identities were confirmed by STR profiling.
(§7) Plates were incubated at 25°C for 1 hr.

SF295 cells = assay type: cell-based
Procedure: as §5, §6, §7

[3] = competition FP source data, replicate 1
[4] = competition FP source data, replicate 2
[5] = competition FP source data, replicate 3
[6] = competition FP source data, mean of three replicates, values above 5 μM are reported as > 5 μM in the figures, read-out: mean Ki (M) Bcl-w
[7] = iBH3 fit PC-3, sigmoidal dose-response (variable slope), fit of 4 replicates
[8] = SF295 cells, iBH3 fit, sigmoidal dose-response (variable slope)
[9] = competition FP source data, mean of three replicates, values above 5 μM are reported as > 5 μM in the figures, read-out: mean Ki (M) Mcl-1
[10] = competition FP, 50 nM c-myc-tagged receptor + 25 nM fluoresceinated BIM, Tris pH 7.8, 23°C, 3 hr, mean ± SD of three replicates, read-out: Ki (nM) Mcl-1
[11] = competition FP, 50 nM c-myc-tagged receptor + 25 nM fluoresceinated BIM, Tris pH 7.8, 23°C, 3 hr, mean ± SD of three replicates, read-out: Ki (nM) Bcl-2
[12] = competition FP, 50 nM c-myc-tagged receptor + 25 nM fluoresceinated BIM, Tris pH 7.8, 23°C, 3 hr, mean ± SD of three replicates, read-out: Ki (nM) Bcl-w
[13] = competition FP, 50 nM c-myc-tagged receptor + 25 nM fluoresceinated BIM, Tris pH 7.8, 23°C, 3 hr, mean ± SD of three replicates, read-out: Ki (nM) Bcl-xL

T1 sequence (Q07820 whole entry): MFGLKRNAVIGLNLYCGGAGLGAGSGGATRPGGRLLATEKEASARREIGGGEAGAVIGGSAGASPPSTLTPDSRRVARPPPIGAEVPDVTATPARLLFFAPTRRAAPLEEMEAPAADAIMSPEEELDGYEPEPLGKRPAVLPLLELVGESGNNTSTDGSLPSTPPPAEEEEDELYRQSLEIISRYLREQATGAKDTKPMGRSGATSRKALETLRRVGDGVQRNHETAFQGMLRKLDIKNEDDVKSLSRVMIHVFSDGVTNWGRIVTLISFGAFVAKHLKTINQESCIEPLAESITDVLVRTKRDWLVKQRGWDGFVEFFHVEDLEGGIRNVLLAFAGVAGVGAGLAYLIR

Molecule | Ki (M) Mcl-1 (Mcl-1; [3]) [M] | Ki (M) Mcl-1 (Mcl-1; [4]) [M] | Ki (M) Mcl-1 (Mcl-1; [5]) [M] | Ki (M) Bcl-2 (Bcl-2; [3]) [M] | Ki (M) Bcl-2 (Bcl-2; [4]) [M] | Ki (M) Bcl-2 (Bcl-2; [5]) [M] | Ki (Bcl-w; [6]) [M] | Ki (M) Bcl-w (Bcl-w; [3]) [M] | Ki (M) Bcl-w (Bcl-w; [4]) [M] | Ki (M) Bcl-w (Bcl-w; [5]) [M] | Ki (M) Bcl-xL (Bcl-xL; [3]) [M] | Ki (M) Bcl-xL (Bcl-xL; [4]) [M] | Ki (M) Bcl-xL (Bcl-xL; [5]) [M] | Ki (Bfl-1) [nM] | Ki (M) Bfl-1 (Bfl-1; replicate 1) [M] | Ki (M) Bfl-1 (Bfl-1; replicate 2) [M] | Ki (M) Bfl-1 (Bfl-1; replicate 3) [M] | Ki (Mcl-1; [9]) [M] | Ki (Mcl-1; [10]) [M] | Ki (Bcl-2; [11]) [nM] | other results
CC[C@H](C)[C@H](NC(=O)[C@H](CCC(=O)O)NC(=O)[C@H](CCCNC(=N)N)NC(=O)[C@H](C)NC(=O)[C@H](Cc1c[nH]c2ccccc12)NC(=O)[C@H](CCC(N)=O)NC(C)=O)C(=O)NCC(=O)N[C@@H](C)C(=O)N[C@@H](CCC(N)=O)C(=O)N[C@@H](CC(C)C)C(=O)N[C@@H](CCCNC(=N)N)C(=O)N[C@@H](CCCNC(=N)N)C(=O)N[C@@H](CCSC)C(=O)N[C@@H](C)C(=O)N[C@@H](CC(=O)O)C(=O)N[C@@H](CC(=O)O)C(=O)N[C@@H](CC(C)C)C(=O)N[C@@H](CC(N)=O)C(=O)N[C@@H](C)C(=O)N[C@@H](CCC(N)=O)C(=O)N[C@@H](Cc1ccc(O)cc1)C(=O)N[C@@H](CCC(=O)O)C(=O)N[C@@H](CCCNC(=N)N)C(N)=O [PUMA, reference compound] | 2.28e-09 | 3.28e-09 | 1.63e-09 | 4.27e-09 | 9.91e-09 | 2.68e-09 | 2.97e-09 | 4.44e-09 | 4.04e-09 | 4.31e-10 | 2.23e-09 | 4.17e-09 | 4.19e-10 | 4.84 | 4.9e-09 | 5.4e-09 | 4.23e-09 |  |  |  | HillSlope (best-fit value) [1]: ~ 1.358; Bottom (best-fit value) ([1]; fit of 3 replicates): ~ -276.9; Top (best-fit value) ([1]; fit of 3 replicates): 0.9859; LogEC50 (best-fit value) ([2]; log of EC50, x axis Log [Peptide M]): -7.436; HillSlope (best-fit value) [2]: 1.78; Bottom (best-fit value) ([2]; fit of 3 replicates): 0.2923; Top (best-fit value) ([2]; fit of 3 replicates): 1.01; peptide concentration leading to cytochrome c release in unprimed cells (PC-3 cells; PC-3, unprimed, iBH3, 25°C, 1 hr): observed cytochrome c release; LogEC50 (best-fit value) (PC-3 cells; iBH3 fit PC-3, log of EC50, x axis Log [Peptide M], sigmoidal dose-response (variable slope)): -6.309; HillSlope (best-fit value) (PC-3 cells; iBH3 fit PC-3, sigmoidal dose-response (variable slope)): 1.567; Bottom (best-fit value) (PC-3 cells; [7]): 0.1477; Top (best-fit value) (PC-3 cells; [7]): 0.7911; peptide concentration leading to cytochrome c release in unprimed cells (SF295 cells; SF295, unprimed, iBH3, 25°C, 1 hr): observed cytochrome c release; Bottom (best-fit value) (SF295 cells; [8]): -0.02393; HillSlope (best-fit value) (SF295 cells; [8]): 0.4226; Top (best-fit value) (SF295 cells; [8]): 0.958; LogEC50 (best-fit value) (SF295 cells; SF295 cells, iBH3 fit, sigmoidal dose-response (variable slope), log of peptide concentration in M): -5.945
Ac-QWAREIGAGLRRAADDVNAQVER-NH2 [Puma_N/FS2_C] | 6.72e-10 | 1.94e-10 | 1.4e-10 |  |  |  |  |  |  |  | 3.68e-09 | 1.31e-09 | 2.24e-09 |  |  |  |  | 3.36e-10 | > 5e-06 | 2000 ± 160 | Ki (Bcl-w; [12]): > 5e-06 M; Ki (Bcl-xL; competition FP source data, mean of three replicates, values above 5 μM are reported as > 5 μM in the figures, read-out: mean Ki (M) Bcl-xL): 2.41e-09 M; Ki (Bcl-xL; [13]): 1.1e-06 ± 3e-07 M
Ac-QWVREIAAQLRRMADDLNAQYER-NH2 [FS2_N/Puma_C] | 5.7e-06 | 6.84e-05 | 0.00018 | 1.99e-06 | 1.85e-06 | 2.17e-06 | 8.83e-06 | 9.94e-06 | 6.82e-06 | 9.74e-06 |  |  |  | 594 | 4.65e-07 | 6.79e-07 | 6.37e-07 | 8.46e-05 | 3e-10 ± 3e-10 | 14 ± 2 | Ki (Bcl-2; competition FP source data, mean of three replicates, values above 5 μM are reported as > 5 μM in the figures, read-out: mean Ki (M) Bcl-2): 2000 nM; Ki (Bcl-w; [12]): 1.2e-09 ± 3e-10 M; Ki (Bcl-xL; [13]): 2.4e-09 ± 1.2e-09 M
Ac-RPVIWIAQGLRRAGDEVNAYVAR-NH2 [BIM-FS2] |  |  |  |  |  |  |  |  |  |  |  |  |  |  | 7.75e-07 | 7.87e-07 | 5.89e-07 |  |  |  | fold weaker binding to Bfl-1 than native BIM (Bfl-1; ratio of Ki values from competition FP): > 1000 fold

— paper PMC5464773 (eLife, 2017)
